Results from PubChem BioAssay (NCI).
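Dose response: 5 concentrations. Exposure: 48 h. Format: 96-well plates. Endpoint: linear interpolation; highest concentration if not reached. The concentration for full growth arrest is given as TGI.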

Assays:
Assay in all cases: DTP human tumour cell line panel, 48 h
[1] = test system: HL-60(TB) leukemia
[2] = test system: RXF 393 renal
[3] = test system: HOP-62 NSCLC
[4] = test system: SF-295 CNS
[5] = test system: K-562 leukemia
[6] = test system: MCF7 breast
[7] = test system: CAKI-1 renal
[8] = test system: NCI/ADR-RES ovarian
[9] = test system: ACHN renal
[10] = test system: OVCAR-5 ovarian
[11] = test system: MOLT-4 leukemia
[12] = test system: HCT-116 colon
[13] = test system: A498 renal
[14] = test system: MDA-N
[15] = test system: MDA-MB-231 breast
[16] = test system: OVCAR-8 ovarian
[17] = test system: SF-268 CNS
[18] = test system: NCI-H23 lung
[19] = test system: HOP-92 NSCLC
[20] = test system: UACC-257 melanoma
[21] = test system: UACC-62 melanoma
[22] = test system: BT-549 breast
[23] = test system: SK-MEL-28 melanoma
[24] = test system: MALME-3M melanoma
[25] = test system: SK-MEL-5 melanoma
[26] = test system: SF-539 CNS
[27] = test system: HCT-15 colon
[28] = test system: OVCAR-3 ovarian
[29] = test system: U251 CNS
[30] = test system: HS 578T breast
[31] = test system: NCI-H522 lung
[32] = test system: SNB-75 CNS
[33] = test system: PC-3 prostate
[34] = test system: 786-0 renal
[35] = test system: TK-10 renal
[36] = test system: SW-620 colon
[37] = test system: SK-MEL-2 melanoma
[38] = test system: SR leukemia
[39] = test system: RPMI-8226 leukemia
[40] = test system: LOX IMVI melanoma
[41] = test system: SNB-19 CNS
[42] = test system: COLO 205 colon
[43] = test system: DU-145 prostate
[44] = test system: KM12 colon
[45] = test system: SN12C renal
[46] = test system: MDA-MB-435
[47] = test system: M14 melanoma
[48] = test system: A549 NSCLC
[49] = test system: EKVX NSCLC
[50] = test system: NCI-H460 lung
[51] = test system: NCI-H226 lung
[52] = test system: SK-OV-3 ovarian
[53] = test system: HT29 colon
[54] = test system: IGROV1 ovarian
[55] = test system: T-47D breast
[56] = test system: OVCAR-4 ovarian
[57] = test system: CCRF-CEM leukemia
[58] = test system: UO-31 renal

Measured: TGI

C/C(=N\NC(=O)c1ccncc1)c1ccccc1Cl
> 100 µM: all assays above

c1ccc2c(CC3NCCN3)cccc2c1
not listed: [58]
> 100 µM: all other assays above

OCCCNCc1ccncc1
not listed: [20]
> 100 µM: all other assays above
